# Test results as given in patent US9790520B2, “Antimicrobial method for fermentation processes” (DeLaval Holding AB, priority 2010, dated 2017).
# Legend:
# [1] = tested on: yeast; experiment: Full scale ethanol plant trial: alcohol production, yeast counts/viability, glycerol; assay type: cell-based, Saccaromyces cerevisiae
# Procedure: A number of full scale trials were conducted in order to evaluate the efficacy of introducing peracetic acid and hydrogen peroxide into a fermentation system was evaluated and compared to the use of conventional antibiotics. The ethanol plant tested is a 20 MGPY plant having a modified Delta T design. The plant process flow is as follows: • Corn mash cooler stage one→Corn mash cooler stage 2→fermenter←→fermenter cooler→distillation The corn mash enters the stage one cooler at 180° F. and is cooled to 140° F. It then enters the stage 2 cooler and is cooled to 90° F. Flow through the cooler is 110 gpm. From the stage 2 cooler the mash is sent to the fermenter. Once in the fermenter, the corn mash is re-circulated through a plate and frame mash cooler. When the fermenter has been filled for 30 minutes, yeast is added to the recirculating corn mash. The fermenter takes about 23 hours to fill. Once filled, fermentation begins to accelerate releasing heat which is dissipated in the fermenter cooler. The fermenter mash is sent to distillation about 56 hours after the fermenter is filled. System parameters are as follows:
# During fermentation, carbohydrates, ethanol, and organic acids are monitored in order to insure that the fermentation process is occurring normally and to insure that undesirable bacteria are kept under control. […]
# [2] = Residual PAA and HP in corn mash by Hach DPD total chlorine test; assay type: physicochemical
# Procedure: At the point of injection, the mash temperature was 140° F. and the mash flow rate was 110 gpm. The pumps used to pump both the HP and PAA solution were Prominent diaphragm pumps fitted with Teflon liquid ends. The dose of the PAA solution was 15 ppm (as PAA) and the dose of the HP was 40 ppm (as peroxide). However, the PAA solution and HP were fed for only 15 hours of the 23 hour fermentor fill time making the overall dose 9.8 ppm of PAA solution and 26 ppm of HP.
# Samples were taken every hour at the mash cooler exit and fermentation tank. The samples were tested using a Hach DPD total chlorine test. Three (3) ml of sample was added to a test tube, then one DPD powder pillow was added to the sample. […] Peracetic acid (PAA) concentration was estimated based on the hue of pink color after 30 seconds.
compound,measurement,setting,value
Virginiamycin [antibiotics],glycerol levels (indicative of stress on the yeast),[1],tended to increase
"OO [HP, hydrogen peroxide]",HP in fermenter corn mash,[2]; after 3 hours,not detectable
"CC(=O)OO [PAA, peracetic acid]",PAA in fermenter corn mash,[2]; after two hours,not detectable
same,PAA in fermenter corn mash,[2]; up to two hours into filling,positive
